In patent US10793892B2, “Method for detecting the presence of expanded spectrum β-lactamase-producing bacteria in a sample” (INSERM (INSTITUT NATIONAL DE LA SANTE ET DE LA RECHERCHE …, priority 2011, dated 2020):

Assays:
P. mirabilis = experiment: ESBL NDP test using spiked blood cultures; type: biochemical, Proteus mirabilis; design: key: (+) and (−) referred to color change being, red to yellow or unchanged, respectively; (+) and (−) referred to color change being, red to yellow or unchanged, respectively
Procedure: (§1) Strains were isolated on Mueller-Hinton agar (Biorad, Marnes-la-Coquette, France) and incubated at 37° C. for 16 h to 24 h before performing the NDP rapid ESBL test as follows. One calibrated inoculated loop (10 μl) of the tested strain was resuspended in 150 μl of 20 mM Tris-HCl lysis buffer previously distributed in Microbead tubes (Ultraclean Microbial DNA isolation kit Bead Tubes, MO BIO Laboratories, Carlsbad, USA). Mechanical lysis of bacteria was performed by strong agitation of Microbead tubes using a vortex adapter (MO BIO Laboratories) for 30 min at room temperature. This bacterial suspension was centrifuged at 10,000×g at room temperature for 5 min. Thirty μl of the supernatant was mixed in a well of a 96-well tray with 100 μl of a 1 ml solution made of 3 mg of purified cefotaxime sodium salt (Sigma-Aldrich, Saint-Quentin-Fallavier, France) in a pH 7.8 phenol red solution. […]. The phenol red solution was made by taking 2 ml of a concentrated pH 8 phenol solution (made from a mixture of phenol red 0.5% in distilled water) to which 16.6 ml of distilled water was added. The pH value was then adjusted to a 7.8 value by adding drops of a 1 N NaOH solution. Mixture of the phenol red solution and the enzymatic suspension being tested was incubated at 37° C. for 30 min. Similarly, culture extracts were analyzed in wells containing cefotaxime and tazobactam (4 mg/ml). Other concentrations of tazobactam and other ß-lactamase inhibitors were tested giving less clear results (data not shown). […] This definition of test positivity will be applied throughout the study.
Rapid detection of ESBL producers was attempted from spiked blood cultures which positivity was assessed using the BactAlert blood culture system (bioMérieux). […] This inoculum was reached after 24-48 h incubation in this BactAlert system. Strains were inoculated into blood culture system in presence of 10 ml of sterile blood. […] Spiked blood cultures were made of 1×10^3 CFU of each strain and incubated 24 to 48 h before a positivity of the blood culture was detected by the BactAlert system. […]

E. cloacae [1] = experiment: Susceptibility testing, MIC by Etest; type: cell-based, Enterobacter cloacae
Procedure: (§2) Susceptibility testing was performed by determining MIC values using the Etest® (AB bioMérieux; Solna, Sweden) on Mueller-Hinton agar plates at 37° C. and results were recorded according to US guidelines (CLSI), as updated in 2012 (2). The breakpoints for cefotaxime are susceptible (S)≤1 and resistant (R)≥4 μg/ml, and for ceftazidime S≤4 and R≥16 μg/ml.

E. cloacae [2] = experiment: ESBL NDP test using spiked blood cultures; type: biochemical, Enterobacter cloacae; design: key: (+) and (−) referred to color change being, red to yellow or unchanged, respectively; (+) and (−) referred to color change being, red to yellow or unchanged, respectively
Procedure: as §1
Rapid detection of ESBL producers was attempted from spiked blood cultures which positivity was assessed using the BactAlert blood culture system (bioMérieux). […] This inoculum was reached after 24-48 h incubation in this BactAlert system. Strains were inoculated into blood culture system in presence of 10 ml of sterile blood. The panel of strains used for spiking blood cultures included either non-ESBL producers (n=24) or ESBL producers (n=64) (Table 4). Spiked blood cultures were made of 1×10^3 CFU of each strain and incubated 24 to 48 h before a positivity of the blood culture was detected by the BactAlert system. Then, 15 ml of spiked blood culture were transferred in a sterile tube and centrifuged at 1,500×g for 3 min to pellet the red blood cells. The supernatant was recovered and centrifuged for 15 min at 4,000×g to pellet the bacteria. The bacterial pellet was then resuspended in 500 μl of distilled water, transferred in 1.5 ml tube and thoroughly vortexed for 15 sec to lyse the remnant red blood cells and wash the bacterial pellet. After 5 min of centrifugation at 10,000×g, the bacterial pellet was resuspended in 150 μl of 20 mM Tris-HCl lysis buffer and distributed in beadtubes. The ESBL NDP test was then applied to this pellet as described above. Experiments were systematically performed in triplicate.

K. pneumoniae = experiment: ESBL NDP test using cultured strains; type: biochemical, Klebsiella pneumoniae; design: key: (+) and (−) referred to color change being, red to yellow or unchanged, respectively; (+) and (−) referred to color change being, red to yellow or unchanged, respectively
Procedure: as §1

E. coli = experiment: Susceptibility testing, MIC by Etest; type: cell-based, Escherichia coli
Procedure: as §2

SMILES: CO/N=C(\C(=O)N[C@@H]1C(=O)N2C(C(=O)O)=C(COC(C)=O)CS[C@H]12)c1csc(N)n1 [CTX, cefotaxime]
- ESBL NDP Test from: Blood culture (P. mirabilis; P. mirabilis 09.128, TEM-52): +
- ESBL NDP Test from: Blood culture (P. mirabilis; P. mirabilis 09.177, TEM-21): +
- ESBL NDP Test from: Blood culture (P. mirabilis; P. mirabilis BIK, ACC-1): −
- MICs range (E. cloacae [1]; E. cloacae CTX-M-14, n=1): >16 µg/mL
- MICs range (E. cloacae [1]; E. cloacae CTX-M-15, n=17): >16 µg/mL
- MICs range (E. cloacae [1]; E. cloacae GES-5, n=1): >16 µg/mL
- MICs range (E. cloacae [1]; E. cloacae PER-1, n=1): >16 µg/mL
- MICs range (E. cloacae [1]; E. cloacae SHV-5, n=1): >16 µg/mL
- MICs range (E. cloacae [1]; E. cloacae TEM-3, n=2): >16 µg/mL
- MICs range (E. cloacae [1]; E. cloacae VEB-1, n=1): 16 µg/mL
- MICs range (E. cloacae [1]; E. cloacae Wild-type, chromosome-encoded cephalosporinase, n=5): 0.09 to 0.5 µg/mL
- MICs range (E. cloacae [1]; E. cloacae, overexpressed chromosome-encoded cephalosporinase, n=2): >16 µg/mL
- MICs range (E. cloacae [1]; E. cloacae, overexpressed chromosome-encoded cephalosporinase, n=3): >16 µg/mL
- ESBL NDP Test from: Blood culture (E. cloacae [2]; E. cloacae 09.57, SHV-12): +
- ESBL NDP Test from: Blood culture (E. cloacae [2]; E. cloacae 10.75, CTX-M-15): +
- ESBL NDP Test from: Blood culture (E. cloacae [2]; E. cloacae 10.87, CTX-M-15): +
- ESBL NDP Test from: Blood culture (E. cloacae [2]; E. cloacae BG 1106 7725, Wild-type): −
- ESBL NDP Test from: Blood culture (E. cloacae [2]; E. cloacae BG 1106 7746, Wild-type): −
- ESBL NDP Test from: Blood culture (E. cloacae [2]; E. cloacae BG 1107 4118, Wild-type): −
- ESBL NDP Test from: Colonies (K. pneumoniae; K. pneumoniae 09.127, SHV-2a): +
- ESBL NDP Test from: Colonies (K. pneumoniae; K. pneumoniae 09.138, TEM-3): +
- ESBL NDP Test from: Colonies (K. pneumoniae; K. pneumoniae 09.158, SHV-12): +
- ESBL NDP Test from: Colonies (K. pneumoniae; K. pneumoniae 09.162, TEM-52): +
- ESBL NDP Test from: Colonies (K. pneumoniae; K. pneumoniae 09.169, TEM-52): +
- ESBL NDP Test from: Colonies (K. pneumoniae; K. pneumoniae 09.181, SHV-2a): +
- ESBL NDP Test from: Colonies (K. pneumoniae; K. pneumoniae 09.190, SHV-2a): −
- ESBL NDP Test from: Colonies (K. pneumoniae; K. pneumoniae 09.200, TEM-3): +
- ESBL NDP Test from: Colonies (K. pneumoniae; K. pneumoniae 09.217, SHV-5): +
- ESBL NDP Test from: Colonies (K. pneumoniae; K. pneumoniae 09.45, SHV-12): +
- ESBL NDP Test from: Colonies (K. pneumoniae; K. pneumoniae 09.60, SHV-5): +
- ESBL NDP Test from: Colonies (K. pneumoniae; K. pneumoniae 09.99, SHV-2a): +
- ESBL NDP Test from: Colonies (K. pneumoniae; K. pneumoniae 10.159, CTX-M-3): +
- ESBL NDP Test from: Colonies (K. pneumoniae; K. pneumoniae ANG, DHA-1): −
- ESBL NDP Test from: Colonies (K. pneumoniae; K. pneumoniae BG 1202 5484, Penicillinase): −
- Test (color change) (K. pneumoniae; K. pneumoniae CTX-M-3, n=1): +
- Test (color change) (K. pneumoniae; K. pneumoniae CTX-M-14, n=3): +
- Test (color change) (K. pneumoniae; K. pneumoniae CTX-M-15, n=28): +
- Test (color change) (K. pneumoniae; K. pneumoniae DHA-1, n=1): −
- Test (color change) (K. pneumoniae; K. pneumoniae DHA-2, n=1): +
- ESBL NDP Test from: Colonies (K. pneumoniae; K. pneumoniae FOR, DHA-2): +
- Test (color change) (K. pneumoniae; K. pneumoniae GES-1, n=1): +
- ESBL NDP Test from: Colonies (K. pneumoniae; K. pneumoniae MEK, CTX-M-15): +
- ESBL NDP Test from: Colonies (K. pneumoniae; K. pneumoniae SHI, CTX-M-15): +
- Test (color change) (K. pneumoniae; K. pneumoniae SHV-2a, n=2): −
- Test (color change) (K. pneumoniae; K. pneumoniae SHV-2a, n=4): +
- Test (color change) (K. pneumoniae; K. pneumoniae SHV-5, n=2): +
- Test (color change) (K. pneumoniae; K. pneumoniae SHV-12, n=1): −
- Test (color change) (K. pneumoniae; K. pneumoniae SHV-12, n=2): +
- Test (color change) (K. pneumoniae; K. pneumoniae SHV-28, n=3): +
- Test (color change) (K. pneumoniae; K. pneumoniae TEM-3, n=3): +
- Test (color change) (K. pneumoniae; K. pneumoniae TEM-52, n=2): +
- Test (color change) (K. pneumoniae; K. pneumoniae Wild-type penicillinase, n=2): −
- MICs range (E. coli; E. coli ACC-1, n=1, first line): >16 µg/mL
- MICs range (E. coli; E. coli ACC-1, n=1, second line): >16 µg/mL
- MICs range (E. coli; E. coli CMY-2, n=1): >16 µg/mL
- MICs range (E. coli; E. coli CTX-M-1, n=16): >16 µg/mL
- MICs range (E. coli; E. coli CTX-M-2, n=3): >16 µg/mL
- MICs range (E. coli; E. coli CTX-M-3, n=1): >16 µg/mL
- MICs range (E. coli; E. coli CTX-M-9, n=1): >16 µg/mL
- MICs range (E. coli; E. coli CTX-M-14, n=15): >16 µg/mL
- MICs range (E. coli; E. coli CTX-M-27, n=6): >16 µg/mL
- MICs range (E. coli; E. coli CTX-M-28, n=1): >16 µg/mL
- MICs range (E. coli; E. coli CTX-M-32, n=1): >16 µg/mL
- MICs range (E. coli; E. coli CTX-M-97, n=1): >16 µg/mL
- MICs range (E. coli; E. coli DHA-1, n=1): 0.25 µg/mL
- MICs range (E. coli; E. coli SHV-3, n=1): 12 µg/mL
- MICs range (E. coli; E. coli SHV-12, n=1): 0.75 µg/mL
- MICs range (E. coli; E. coli SHV-12, n=6): >16 µg/mL
- MICs range (E. coli; E. coli TEM-1 penicillinase, n=5): 0.03 to 0.09 µg/mL
- MICs range (E. coli; E. coli TEM-12, n=1): 0.5 µg/mL
- MICs range (E. coli; E. coli TEM-29, n=2): 0.25 µg/mL
- MICs range (E. coli; E. coli TEM-133, n=1): 0.19 µg/mL
- MICs range (E. coli; E. coli VEB-1, n=1): 8 µg/mL
- MICs range (E. coli; E. coli Wild-type, no resistance, n=5): 0.02 to 0.04 µg/mL
